Values quoted from earlier work, collected in patent US9278976B2, “Aminotetrahydropyrans as dipeptidyl peptidase-IV inhibitors for the treatment of diabetes” (Merck Sharp & Dohme Corp., priority 2008, dated 2016).

Legend:
[1] = mouse, cyclophosphamide-induced neutropenia
[2] = rats; doubled from day 7

SMILES: CC(C)[C@H](N)C(=O)N1CCC[C@H]1B(O)O [Val-Boro-Pro]
- hematopoiesis [1]: stimulated hematopoiesis

SMILES: CC(C)N1CCC(c2ccccc2)(c2ccccc2)CC1 [Prodipine, Pro-Pro-diphenyl-phosphonate]
- cardiac allograft survival [2]: 14 day
